In brackets after ≈: the same amount, converted by molar mass.
How the values were obtained:
Salmonella typhimurium [1] = test: Bactericidal activity against Salmonella typhimurium ATCC 14028 infected in mouse RAW264.7 cells assessed as log reduction in intracellular bacterial load at 50 uM within 3 to 9 hrs in presence of gentamycin; type: functional, Salmonella enterica subsp. enterica serovar Typhimurium
Salmonella typhimurium [2] = test: Antibacterial activity against Salmonella typhimurium ATCC 14028 assessed as survival at 10 uM after 3 hrs by broth microdilution method; type: functional, Salmonella enterica subsp. enterica serovar Typhimurium
Salmonella typhimurium [3] = test: Antibacterial activity against Salmonella typhimurium ATCC 14028 at pH 7 after 16 to 18 hrs by broth microdilution method; type: functional, Salmonella enterica subsp. enterica serovar Typhimurium; conditions: Salmonella enterica
Salmonella typhimurium [4] = test: Bactericidal activity against Salmonella typhimurium ATCC 14028 at 10 uM within 3 to 9 hrs; type: functional, Salmonella enterica subsp. enterica serovar Typhimurium
Salmonella typhimurium [5] = test: Antibacterial activity against Salmonella typhimurium ATCC 14028 at pH 5 after 16 to 18 hrs by broth microdilution method; type: functional, Salmonella enterica subsp. enterica serovar Typhimurium; conditions: Salmonella enterica
Salmonella typhimurium [6] = test: Bactericidal activity against Salmonella typhimurium ATCC 14028 infected in mouse RAW264.7 cells assessed as log reduction in intracellular bacterial load at 100 uM within 3 to 9 hrs in presence of gentamycin; type: functional, Salmonella enterica subsp. enterica serovar Typhimurium
[7] = Drug internalization in mouse RAW264.7 cells at 1 uM using FITC-labeled test compound after 0.5 hrs by flow cytometry; type: ADME, cell-based; conditions: raw264.7, 0.5 h
[8] = Drug uptake in mouse RAW264.7 cells at 5 uM using FITC-labeled test compound after 0.5 hrs by flow cytometry; type: ADME, cell-based; conditions: raw264.7, 0.5 h
[9] = Drug internalization in mouse RAW264.7 cells at 1 uM using FITC-labeled test compound after 2 hrs by flow cytometry; type: ADME, cell-based; conditions: raw264.7, 2 h
[10] = Drug uptake in mouse RAW264.7 cells at 5 uM using FITC-labeled test compound after 2 hrs by flow cytometry; type: ADME, cell-based; conditions: raw264.7, 2 h
[11] = Cytotoxicity against mouse RAW264.7 cells assessed as cell survival at 100 uM after 8 hrs by MTT assay; type: cell-based; conditions: read-out: Survival
[12] = Drug internalization in mouse RAW264.7 cells using FITC-labeled test compound by flow cytometry; type: ADME, cell-based
[13] = Drug uptake in mouse RAW264.7 cells at 5 uM using FITC-labeled test compound after 5 hrs by Hoechst 33342/FM 4-64 staining-based confocal microscopic analysis; type: ADME, cell-based; conditions: raw264.7, 5 h
Salmonella typhimurium [14] = test: Bactericidal activity against Salmonella typhimurium ATCC 14028 infected in mouse RAW264.7 cells assessed as log reduction in intracellular bacterial load at 10 uM after 10 hrs in presence of gentamycin; type: functional, Salmonella enterica subsp. enterica serovar Typhimurium
Salmonella typhimurium [15] = test: Bactericidal activity against Salmonella typhimurium ATCC 14028 infected in mouse RAW264.7 cells assessed as log reduction in intracellular bacterial load at 20 uM within 3 to 9 hrs in presence of gentamycin; type: functional, Salmonella enterica subsp. enterica serovar Typhimurium

SMILES | log(activity) (Salmonella typhimurium [1]) | Survival (Salmonella typhimurium [2]) [×10⁵ CFU/ml] | MIC (Salmonella typhimurium [3]) [µM] | Activity (Salmonella typhimurium [4]) | MIC (Salmonella typhimurium [5]) [µM] | log(activity) (Salmonella typhimurium [6]) | Drug uptake [7] [%] | Drug uptake [8] [%] | Drug uptake [9] [%] | Drug uptake [10] [%] | viability at 8 h, 100 µM [11] [%] | Drug uptake [12] | Drug uptake [13] | log(activity) (Salmonella typhimurium [14]) | log(activity) (Salmonella typhimurium [15])
CC(C)[C@@H]1NC(=O)[C@H](C)NC(=O)[C@H](CC(N)=O)NC(=O)[C@H](CCCNC(=N)N)NC(=O)[C@H](Cc2ccc(O)cc2)NC(=O)[C@H](C(C)C)NC(=O)[C@@H]2CSSC[C@H](NC(=O)[C@H](C(C)C)NC(=O)[C@H](CCCNC(=N)N)NC1=O)C(=O)N[C@@H](Cc1cnc[nH]1)C(=O)N[C@@H](CCCNC(=N)N)C(=O)N[C@@H](CCCNC(=N)N)C(=O)N[C@H](C(=O)N[C@@H](CC(N)=O)C(=O)O)CSSC[C@H](NC(=O)[C@H](Cc1ccccc1)NC(=O)[C@H](C)NC(=O)[C@H](CCCNC(=N)N)NC(=O)[C@H](Cc1c[nH]c3ccccc13)NC(=O)[C@H](CCC(N)=O)NC(=O)[C@H](Cc1c[nH]c3ccccc13)NC(=O)[C@H](CCCNC(=N)N)NC(=O)[C@@H](N)CCCNC(=N)N)C(=O)N[C@@H](Cc1c[nH]c3ccccc13)C(=O)N[C@@H](CC(N)=O)C(=O)N[C@@H](C(C)C)C(=O)N2 | 1.63 | 1.9 | 2.25 (≈ 7.95 µg/mL) | 34.22 - 91.35% | 9 (≈ 31.8 µg/mL) | 2.1 |  |  |  |  |  |  |  |  | 
CC(C)[C@@H]1NC(=O)[C@H](C)NC(=O)[C@H](CC(N)=O)NC(=O)[C@H](CCCNC(=N)N)NC(=O)[C@H](Cc2ccc(O)cc2)NC(=O)[C@H](C(C)C)NC(=O)[C@@H]2CSSC[C@H](NC(=O)[C@H](C(C)C)NC(=O)[C@H](CCCNC(=N)N)NC1=O)C(=O)N[C@@H](Cc1c[nH]cn1)C(=O)N[C@@H](CCCNC(=N)N)C(=O)N[C@@H](CCCNC(=N)N)C(=O)N[C@H](C(=O)N[C@@H](CC(N)=O)C(=O)O)CSSC[C@H](NC(=O)[C@H](Cc1ccccc1)NC(=O)[C@H](C)N)C(=O)N[C@@H](Cc1c[nH]c3ccccc13)C(=O)N[C@@H](CC(N)=O)C(=O)N[C@@H](C(C)C)C(=O)N2 |  |  |  |  |  |  | 17.3 | 50 | 31.4 | 93.4 | 103 | Dose-dependent effect and Tde | Not Active |  | 
CC(C)[C@@H]1NC(=O)[C@H](C)NC(=O)[C@H](CC(N)=O)NC(=O)[C@H](CCCNC(=N)N)NC(=O)[C@H](Cc2ccc(O)cc2)NC(=O)[C@H](C(C)C)NC(=O)[C@@H]2CSSC[C@H](NC(=O)[C@H](C(C)C)NC(=O)[C@H](CCCNC(=N)N)NC1=O)C(=O)N[C@@H](Cc1cnc[nH]1)C(=O)N[C@@H](CCCNC(=N)N)C(=O)N[C@@H](CCCNC(=N)N)C(=O)N[C@H](C(=O)N[C@@H](CC(N)=O)C(=O)O)CSSC[C@H](NC(=O)[C@H](Cc1ccccc1)NC(=O)[C@H](C)NC(=O)[C@H](CCCNC(=N)N)NC(=O)[C@H](CCCNC(=N)N)NC(=O)[C@H](CCCNC(=N)N)NC(=O)[C@H](CCC(N)=O)NC(=O)[C@H](CCCNC(=N)N)NC(=O)[C@H](CCCNC(=N)N)NC(=O)[C@H](CCCCN)NC(=O)[C@H](CCCCN)NC(=O)[C@H](CCCNC(=N)N)NC(=O)CNC(=O)[C@@H](N)Cc1ccc(O)cc1)C(=O)N[C@@H](Cc1c[nH]c3ccccc13)C(=O)N[C@@H](CC(N)=O)C(=O)N[C@@H](C(C)C)C(=O)N2 | 3.26 | 1.5 | 1.94 (≈ 7.97 µg/mL) | 48.28 - 98.85% | 3.89 (≈ 16 µg/mL) |  |  |  |  |  |  |  |  | 1.19 | 1.57
